Test systems include Micrococcus luteus; Pseudomonas aeruginosa; Bacillus subtilis; Staphylococcus aureus; Shigella dysenteriae; Salmonella typhimurium; Escherichia coli; Proteus mirabilis; Klebsiella pneumoniae; Candida albicans; Saccharomyces cerevisiae; Serratia marcescens; Leuconostoc lactis; Bacillus cereus; Listeria innocua; Streptococcus uberis; Pasteurella multocida; Escherichia coli HB101.

What all share (assay): ≥ marks a high value that may be exact or a test limit, other limits are often not marked, values filed in µg/mL are converted to µM
Assay [1] deals with Staphylococcus epidermidis.
Assay [2] deals with Pseudomonas syringae pv. tomato DC3000.
For assay [3], the system named is Pectobacterium carotovorum subsp. carotovorum DSM 30168.
Assay [4] has as its system Clavibacter michiganensis subsp. michiganensis DSM 46294.
Assay [5] concerns Xanthomonas vesicatoria DSM 50861.
Assay [6] has as its system Pseudomonas corrugata DSM 7228.
The subject of assay [7] is Pseudomonas syringae pv. syringae DSM 10604.
Assay [8] relates to Escherichia coli ATCC 25922.

Each structure is given as a SMILES string. Values after ≈ are worked out from the molar mass of the structure shown.

The term MIC denotes the lowest concentration that inhibits growth of the organism. A high value points to a need for much substance. `CC(C)C[C@H](NC(=O)[C@H](C)NC(=O)CNC(=O)[C@H](CC(C)C)NC(=O)[C@@H](N)Cc1ccccc1)C(=O)N[C@@H](Cc1ccccc1)C(=O)N[C@@H](CCCCN)C(=O)N[C@H](C(=O)N[C@@H](C)C(=O)N[C@@H](CO)C(=O)N[C@@H](CCCCN)C(=O)O)C(C)C` [FLGALFKVASK]: the MIC against Micrococcus luteus was not below 169 µM; against Pseudomonas aeruginosa, more than 169 µM; against Bacillus subtilis it was not below 169 µM; in [1], not below 169 µM; against Staphylococcus aureus, more than 169 µM; against Shigella dysenteriae, not below 169 µM. Further, the MIC is not below 169 µM against Salmonella typhimurium, more than 169 µM against Escherichia coli, not below 169 µM against Proteus mirabilis and more than 169 µM against Klebsiella pneumoniae.

Consider `CC(C)C[C@H](NC(=O)CNC(=O)[C@H](CC(C)C)NC(=O)[C@@H](N)Cc1ccccc1)C(=O)N[C@@H](CC(C)C)C(=O)N[C@@H](Cc1ccccc1)C(=O)N[C@@H](CCCCN)C(=O)N[C@H](C(=O)N[C@@H](C)C(=O)N[C@@H](CO)C(=O)N[C@@H](CCCCN)C(=O)O)C(C)C` [FLGLLFKVASK], for which the MIC in the assay on Micrococcus luteus is 10.2 µM (≈ 12.5 µg/mL); in the assay on Pseudomonas aeruginosa, more than 164 µM; with Bacillus subtilis it was not below 40.9 µM; in assay [1], not below 40.9 µM; in the assay with Staphylococcus aureus, 20.4 µM (≈ 25 µg/mL); against Shigella dysenteriae, not below 164 µM. The minimal inhibitory concentration (MIC) against Salmonella typhimurium is not below 164 µM; against Escherichia coli, 164 µM (≈ 200 µg/mL); in the assay with Proteus mirabilis it was not below 164 µM; against Klebsiella pneumoniae it was 81.8 µM (≈ 100 µg/mL).

As to `CC(C)C[C@H](NC(=O)[C@@H](NC(=O)[C@H](CCCCN)NC(=O)[C@H](CO)NC(=O)[C@H](C)NC(=O)[C@@H](NC(=O)[C@H](CCCCN)NC(=O)[C@H](Cc1ccccc1)NC(=O)[C@H](CC(C)C)NC(=O)[C@H](C)NC(=O)[C@H](CCCCN)NC(=O)[C@H](CC(C)C)NC(=O)[C@@H](N)Cc1ccccc1)C(C)C)C(C)C)C(=O)O` [FLKALFKVASKVL], the minimal inhibitory concentration (MIC) against Micrococcus luteus was 2.12 µM (≈ 3.1 µg/mL); in the assay on Pseudomonas aeruginosa, 17.1 µM (≈ 25 µg/mL); against Bacillus subtilis, 8.54 µM (≈ 12.5 µg/mL); in [1], 2.12 µM (≈ 3.1 µg/mL); with Staphylococcus aureus it was 2.12 µM (≈ 3.1 µg/mL); in the assay on Shigella dysenteriae it was 4.3 µM (≈ 6.3 µg/mL). The MIC is 8.54 µM (≈ 12.5 µg/mL) in the assay on Salmonella typhimurium, 4.3 µM (≈ 6.3 µg/mL) against Escherichia coli, not below 137 µM against Proteus mirabilis and 2.12 µM (≈ 3.1 µg/mL) in the assay on Klebsiella pneumoniae.

For `CC[C@H](C)[C@H](NC(=O)CN)C(=O)N[C@@H](CC(C)C)C(=O)N[C@@H](CC(=O)O)C(=O)N[C@H](C(=O)N[C@@H](CC(C)C)C(=O)N[C@@H](CCCCN)C(=O)N[C@@H](CCC(N)=O)C(=O)N[C@@H](Cc1ccccc1)C(=O)N[C@@H](C)C(=O)N[C@@H](CCCCN)C(=O)NCC(=O)N[C@H](C(=O)NCC(=O)N[C@@H](CCCCN)C(=O)N[C@@H](CC(=O)O)C(=O)N[C@@H](CC(C)C)C(=O)N[C@H](C(=O)N[C@@H](CCCCN)C(=O)NCC(=O)N[C@@H](C)C(=O)N[C@@H](C)C(=O)N[C@@H](CCC(N)=O)C(=O)NCC(=O)N[C@H](C(=O)N[C@@H](CC(C)C)C(=O)N[C@@H](CO)C(=O)N[C@H](C(=O)O)[C@@H](C)O)C(C)C)C(C)C)C(C)C)[C@@H](C)O` [GILDTLKQFAKGVGKDLVKGAAQGVLST], the minimal inhibitory concentration (MIC) in the assay with Micrococcus luteus was 0.888 µM (≈ 2.5 µg/mL); against Pseudomonas aeruginosa, 17.8 µM (≈ 50 µg/mL); against Bacillus subtilis, 17.8 µM (≈ 50 µg/mL); in the assay on Candida albicans, more than 35.5 µM; in assay [1], 17.8 µM (≈ 50 µg/mL); in the assay on Shigella dysenteriae it was 8.88 µM (≈ 25 µg/mL). For the same compound, the MIC in the assay on Saccharomyces cerevisiae was 8.88 µM (≈ 25 µg/mL); in the assay on Salmonella typhimurium, 26.6 µM (≈ 75 µg/mL); with Serratia marcescens it was not below 35.5 µM; in the assay with Escherichia coli it was 8.88 µM (≈ 25 µg/mL); against Proteus mirabilis, not below 35.5 µM.

For `CC[C@H](C)[C@H](NC(=O)[C@H](CO)NC(=O)CNC(=O)[C@@H](NC(=O)[C@H](CC(C)C)NC(=O)CN)[C@@H](C)CC)C(=O)NCC(=O)N[C@@H](CCCCN)C(=O)N[C@@H](C)C(=O)N[C@@H](CC(C)C)C(=O)NCC(=O)NCC(=O)N[C@@H](CC(C)C)C(=O)N[C@@H](CC(C)C)C(=O)N[C@H](C(=O)N[C@@H](CC(=O)O)C(=O)N[C@H](C(=O)N[C@@H](CC(C)C)C(=O)N[C@@H](CCCCN)C(=O)N1CCC[C@H]1C(=O)N[C@@H](CCCCN)C(=O)N[C@@H](CC(C)C)C(=O)N[C@@H](CCC(N)=O)C(=O)N[C@@H](C)C(=O)N[C@@H](C)C(=O)N[C@@H](CO)C(=O)O)C(C)C)C(C)C` [GLIGSIGKALGGLLVDVLKPKLQAAS], the MIC in the assay on Leuconostoc lactis is not below 39.7 µM; in the assay with Micrococcus luteus it was not below 39.7 µM; in the assay on Bacillus cereus it was not below 39.7 µM; with Listeria innocua, not below 39.7 µM; in assay [1], not below 39.7 µM; in the assay with Staphylococcus aureus it was more than 39.7 µM. The figures for the MIC with Escherichia coli, with Streptococcus uberis and with Pasteurella multocida were more than 39.7 µM, not below 39.7 µM and not below 39.7 µM, respectively.

Turning to `CC[C@H](C)[C@H](NC(=O)[C@@H](NC(=O)[C@@H]1CCCN1C(=O)[C@@H](NC(=O)[C@@H]1CCCN1C(=O)[C@H](CCCCN)NC(=O)[C@H](CCCCN)NC(=O)[C@H](CO)NC(=O)CN)C(C)C)[C@@H](C)CC)C(=O)N[C@@H](Cc1ccc(O)cc1)C(=O)N[C@H]1CSSC[C@@H](C(=O)N[C@@H](CCC(N)=O)C(=O)N[C@@H](CCCN=C(N)N)C(=O)N[C@@H](CCSC)C(=O)O)NC(=O)[C@H](CCCCN)NC(=O)[C@H](CCCN=C(N)N)NC(=O)[C@H](CCCN=C(N)N)NC(=O)[C@H](CC(N)=O)NC1=O` [GSKKPVPIIYCNRRKCQRM], the MIC with Pseudomonas aeruginosa was determined as 10.4 µM (≈ 23.7 µg/mL); in the assay with Bacillus subtilis, 5.2 µM (≈ 11.8 µg/mL); against Staphylococcus aureus, 10.4 µM (≈ 23.7 µg/mL); in the assay on Salmonella typhimurium, 1.3 µM (≈ 2.96 µg/mL); in the assay with Escherichia coli HB101 it was 2.6 µM (≈ 5.92 µg/mL).

For the compound `CC[C@H](C)[C@H](NC(=O)[C@H](CC(C)C)NC(=O)[C@H](CCCCN)NC(=O)[C@@H](NC(=O)[C@@H](NC(=O)[C@H](CC(C)C)NC(=O)[C@H](CCCCN)NC(=O)[C@H](CC(C)C)NC(=O)[C@@H](NC(=O)[C@H](CCCN=C(N)N)NC(=O)[C@@H](NC(=O)[C@H](CC(C)C)NC(=O)[C@@H](NC(=O)[C@H](CCCN=C(N)N)NC(=O)[C@H](CCCN=C(N)N)NC(=O)[C@@H](N)CCCCN)[C@@H](C)CC)[C@@H](C)CC)[C@@H](C)CC)[C@@H](C)CC)[C@@H](C)CC)C(=O)N[C@@H](CC(C)C)C(=O)N[C@@H](CCCCN)C(=O)N[C@@H](CCCCN)C(=O)N[C@@H](CCCN=C(N)N)C(N)=O` [KRRILIRILKLIIKLILKKR], the MIC worked out at 0.989 µM (≈ 2.5 µg/mL) in [2]; 3.96 µM (≈ 10 µg/mL) in assay [3]; 0.989 µM (≈ 2.5 µg/mL) in assay [4]; 0.396 µM (≈ 1 µg/mL) in assay [5]; 3.96 µM (≈ 10 µg/mL) in assay [6]; 3.96 µM (≈ 10 µg/mL) in assay [7].

With `CC(C)C[C@H](NC(=O)[C@H](C)NC(=O)[C@H](CCCN=C(N)N)NC(=O)[C@H](CCCN=C(N)N)NC(=O)[C@H](C)NC(=O)[C@H](Cc1ccccc1)NC(=O)[C@H](CCCN=C(N)N)NC(=O)[C@@H](N)CC(C)C)C(=O)N[C@@H](CCCN=C(N)N)C(=O)N[C@@H](CCCN=C(N)N)C(=O)N[C@@H](CC(C)C)C(=O)N[C@@H](Cc1ccccc1)C(N)=O` [LRFARRALRRLF], the minimal inhibitory concentration (MIC) in assay [2] is 0.159 µM (≈ 0.25 µg/mL); in assay [3] it was 1.59 µM (≈ 2.5 µg/mL); in [4] it was 0.635 µM (≈ 0.999 µg/mL); in assay [5], 0.635 µM (≈ 0.999 µg/mL); in assay [6], 0.318 µM (≈ 0.5 µg/mL); in assay [7], 0.159 µM (≈ 0.25 µg/mL).

Take `CC(C)C[C@H](NC(=O)[C@H](CC(C)C)NC(=O)[C@H](CCCN=C(N)N)NC(=O)[C@H](CCCCN)NC(=O)[C@H](CC(C)C)NC(=O)[C@H](CC(C)C)NC(=O)[C@H](CCCCN)NC(=O)[C@H](CCCCN)NC(=O)[C@H](CCCN=C(N)N)NC(=O)[C@H](CCCCN)NC(=O)[C@H](CCCCN)NC(=O)[C@@H](N)CCCN=C(N)N)C(N)=O` [RKKRKKLLKRLL]: the MIC in [2] is 0.633 µM (≈ 0.999 µg/mL); in assay [3] it was 6.33 µM (≈ 9.99 µg/mL); in [4], 3.16 µM (≈ 5 µg/mL); in assay [5], 3.16 µM (≈ 5 µg/mL); in assay [6] it was 0.158 µM (≈ 0.25 µg/mL); in assay [7], 0.0633 µM (≈ 0.1 µg/mL).

For `CC[C@H](C)[C@H](NC(=O)[C@H](CCCN=C(N)N)NC(=O)[C@@H](N)CCCN=C(N)N)C(=O)N[C@@H](CCCN=C(N)N)C(=O)N1CCC[C@H]1C(=O)N[C@@H](CCCN=C(N)N)C(=O)N1CCC[C@H]1C(=O)N[C@@H](CCCN=C(N)N)C(=O)N[C@@H](CS)C(=O)O` [RRIRPRPRC], the MIC was more than 128 µM in assay [8] and not below 128 µM against Escherichia coli HB101.

Values taken from DBAASP.
